From US4515727A, “Allene containing arachidonic acid derivatives” (SYNTEX (U.S.A.) Inc., priority 1982, dated 1985)

What was measured:
[1] = biological target: T1, Lipoxygenase (Homo sapiens, UniProt P09917); assay: Inhibition of lipoxygenase activity by human polymorphonuclear leukocytes (PMNs); assay type: cell-based; conditions: test compound 1×10^-4 m, 37° C., 5 minutes, arachidonic acid 1-C14 1×10^-4 M; for Percent Inhibition Lipoxygenese Act. 5-HETE: product 5-hydroxy-7,9,11,14-eicosatetraenoic acid; for Percent Inhibition Lipoxygenese Act. LTB4: product Leukotriene B4
T1 construct: The PMNs were prepared from 200-300 ml of heparinized blood of healthy donors; endogenous in cells; host or cells: human polymorphonuclear leukocytes from heparinized blood of healthy donors (intact cells)
T1 sequence (P09917 1-674): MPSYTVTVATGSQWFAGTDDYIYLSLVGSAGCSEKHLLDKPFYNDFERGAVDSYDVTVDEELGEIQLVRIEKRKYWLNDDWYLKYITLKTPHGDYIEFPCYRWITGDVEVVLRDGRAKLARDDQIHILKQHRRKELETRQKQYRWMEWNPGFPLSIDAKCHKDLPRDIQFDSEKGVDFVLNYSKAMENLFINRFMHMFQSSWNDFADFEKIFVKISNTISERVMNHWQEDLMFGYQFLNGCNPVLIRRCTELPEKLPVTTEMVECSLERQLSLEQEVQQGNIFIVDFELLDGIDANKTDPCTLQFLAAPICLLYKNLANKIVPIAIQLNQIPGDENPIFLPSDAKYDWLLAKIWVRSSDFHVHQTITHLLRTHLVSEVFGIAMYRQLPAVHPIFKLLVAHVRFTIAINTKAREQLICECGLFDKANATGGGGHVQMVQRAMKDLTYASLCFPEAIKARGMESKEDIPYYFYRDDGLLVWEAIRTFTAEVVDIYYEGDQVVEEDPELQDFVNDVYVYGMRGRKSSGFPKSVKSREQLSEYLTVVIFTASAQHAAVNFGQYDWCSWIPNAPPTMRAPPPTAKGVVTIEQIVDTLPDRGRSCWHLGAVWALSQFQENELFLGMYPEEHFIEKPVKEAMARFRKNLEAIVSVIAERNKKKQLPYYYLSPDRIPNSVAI
Experimental: (§1) Assay for Inhibition of Lipoxygenase Activity By Human Polymorphonuclear Leukocytes (PMNs)
(§2) 1. Preparation of the cells:
(§3) The PMNs were prepared from 200-300 ml of heparinized blood of healthy donors not receiving any medication for at least 7 days using Ficoll-Hypaque gradients. In general, PMNs were greater than 98% pure and their viability was assessed by dye-exclusion to be better than 95%. The cells were suspended in phosphate buffered saline containing 1.0 mM CaCl2 (PH 7.4) and 0.1 ovalbumin, and used within 30 minutes.
Incubations were carried out at 37° C. for 5 minutes in a total volume of 0.2 ml. Arachidonic acid 1-C^14 (1×10^-4 M unless otherwise indicated, and approximately 300,000 cpm) was added to a suspension of cells (ca 5×10^6) to initiate the reaction. Prior to the addition of above substrate, the test substances were added to the cells at appropriate concentrations and pre-incubated at 37° C. for 5 minutes. In general, stock solutions of test substances were prepared in ethanol (or other appropriate solvents) and diluted with either incubation buffer or water. […] Boiled enzyme blanks and controls containing no test compound were always included. The incubations were terminated by the addition of 0.6 ml of methanol, vortexed and kept on ice for 30 minutes. An internal standard (5-hydroxy-7,9,11,14-eicosatetraenoic acid methyl ester) and 1.6 ml of deionized water was added, vortexed, centrifuged, supernatants decanted and kept in the freezer overnight. Extraction and purification of the arachidonic acid and lipoxygenase products were carried out using "Baker" disposable C18 extraction columns (1 ml capacity). The columns were prewashed with methanol (2.0 ml) followed by deionized water (2 ml). After most of the solvent was removed, 2.0 ml of the supernatant was applied to the extraction column and the solvent was allowed to flow through. The column was then washed with 5 ml of deionized water and the eludate was discarded. The column was then eluted with 2.0 ml of methanol and the eludate was forced through by N2, collected and the solvent removed in a vacuum oven overnight. The residue was carefully dissolved in […] of the mobile phase (methanol 75:H2 O 25:acetic acid 0.01) and a 10 microliter aliquot counted to estimate the recoveries. An aliquot of an extract from a control tube was injected into a Waters μBondpack C-18 reverse phase column and the retention times of cycloxygenase and lipoxygenase products determined both by OD measurement at 244 nM and by collecting 1 min. fractions and determining radioactivity. Based on this information, programmed collection of fractions (total of 6) using a fraction collector was made with each of the extracts injected into the column by an autoinjector (WISP) and the fractions counted for radioactivity in a Packard Liquid Scintillation Spectrometer.
Using this procedure the following compounds were tested at a concentration of 1×10^-4 m and found to have the denoted lipoxygenase and cycloxygenase activity: […]

[2] = biological target: T2, Cyclooxygenase (Homo sapiens, UniProt P23219); assay: Inhibition of cyclooxygenase activity in the human PMN arachidonic acid incubation; assay type: cell-based; conditions: test compound 1×10^-4 m; human PMNs, 37° C., 5 minutes; arachidonic acid 1-C14 1×10^-4 M
T2 construct: The PMNs were prepared from 200-300 ml of heparinized blood of healthy donors; endogenous in cells; host or cells: human polymorphonuclear leukocytes from heparinized blood of healthy donors (intact cells, more than 98% pure)
T2 sequence (P23219 24-599): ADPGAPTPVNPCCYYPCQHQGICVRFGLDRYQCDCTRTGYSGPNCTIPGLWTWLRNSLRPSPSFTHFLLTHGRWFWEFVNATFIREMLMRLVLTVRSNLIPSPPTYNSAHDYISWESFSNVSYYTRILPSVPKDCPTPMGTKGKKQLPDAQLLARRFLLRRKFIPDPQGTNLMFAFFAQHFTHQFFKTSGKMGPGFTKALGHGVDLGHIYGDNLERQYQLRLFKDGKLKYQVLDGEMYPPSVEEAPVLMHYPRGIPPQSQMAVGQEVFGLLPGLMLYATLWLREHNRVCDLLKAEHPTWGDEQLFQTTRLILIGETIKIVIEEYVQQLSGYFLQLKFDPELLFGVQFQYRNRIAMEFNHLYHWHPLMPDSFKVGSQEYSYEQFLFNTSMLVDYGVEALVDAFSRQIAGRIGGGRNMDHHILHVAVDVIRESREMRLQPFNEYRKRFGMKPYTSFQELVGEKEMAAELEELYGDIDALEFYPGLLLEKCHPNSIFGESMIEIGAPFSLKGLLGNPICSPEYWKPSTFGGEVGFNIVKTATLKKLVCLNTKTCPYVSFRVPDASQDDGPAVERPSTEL
Experimental: as §1, §2, §3
Incubations were carried out at 37° C. for 5 minutes in a total volume of 0.2 ml. Arachidonic acid 1-C^14 (1×10^-4 M unless otherwise indicated, and approximately 300,000 cpm) was added to a suspension of cells (ca 5×10^6) to initiate the reaction. Prior to the addition of above substrate, the test substances were added to the cells at appropriate concentrations and pre-incubated at 37° C. for 5 minutes. In general, stock solutions of test substances were prepared in ethanol (or other appropriate solvents) and diluted with either incubation buffer or water. […] Boiled enzyme blanks and controls containing no test compound were always included. The incubations were terminated by the addition of 0.6 ml of methanol, vortexed and kept on ice for 30 minutes. […] The residue was carefully dissolved in […] of the mobile phase (methanol 75:H2 O 25:acetic acid 0.01) and a 10 microliter aliquot counted to estimate the recoveries. An aliquot of an extract from a control tube was injected into a Waters μBondpack C-18 reverse phase column and the retention times of cycloxygenase and lipoxygenase products determined both by OD measurement at 244 nM and by collecting 1 min. fractions and determining radioactivity. Based on this information, programmed collection of fractions (total of 6) using a fraction collector was made with each of the extracts injected into the column by an autoinjector (WISP) and the fractions counted for radioactivity in a Packard Liquid Scintillation Spectrometer. […]

Percent Inhibition Lipoxygenese Act. 5-HETE [1] | Percent Inhibition Lipoxygenese Act. LTB4 [1] | Percent Inhibition Cyclooxygenese Act. Total "PGs" [2] | Compound
9% | 20% | 9% | CCCCC/C=C\C/C=C\C/C=C\CC=C=CCCC(=O)O [4,5,8Z,11Z,14Z-eicosatetraenoic acid]
42% | 47% | 7% | CCCCCCCCCCC/C=C\CC=C=CCCC(=O)O [4,5,8Z-eicosatrienoic acid]
46% | 37% | 22% | CCCCCCCCCCCSCC=C=CCCC(=O)O [8-thianonadeca-4,5-dienoic acid]
